Measured values: US9994571B2, “10-substituted morphinan hydantoins” (Purdue Pharma L.P., priority 2013, dated 2018)
Read-outs that look alike come from different tables or passages of the source.

Columns and labels:
μ-opioid receptor [1] = biological target: T1, μ-opioid receptor (Homo sapiens (Human), UniProt P35372); experiment: μ-opioid receptor radioligand dose-displacement binding assay ([3H]-diprenorphine); conditions: binding assays using HEK-293 cells
Experimental: Radioligand dose-displacement binding assays for μ-opioid receptors used 0.3 nM [^3H]-diprenorphine (Perkin Elmer, Shelton, Conn.), with […] membrane protein/well in a final volume of 500 μl binding buffer (10 mM MgCl2, 1 mM EDTA, 5% DMSO, 50 mM HEPES, pH 7.4). Reactions were carried out in the absence or presence of increasing concentrations of unlabeled naloxone. All reactions were conducted in 96-deep well polypropylene plates for 2 hours at room temperature. Binding reactions were terminated by rapid filtration onto 96-well Unifilter GF/C filter plates (Perkin Elmer, Shelton, Conn.), presoaked in 0.5% polyethylenimine using a 96-well tissue harvester (Perkin Elmer, Shelton, Conn.) followed by performing three filtration washes with 500 μl of ice-cold binding buffer. Filter plates were subsequently dried at 50° C. for 2-3 hours. BetaScint scintillation cocktail (Perkin Elmer, Shelton, Conn.) was added (50 μl/well), and plates were counted using a Packard Top-Count for 1 min/well. The data were analyzed using the one-site competition curve fitting functions in GraphPad PRISM™ v. 3.0 or higher (San Diego, Calif.), or an in-house function for one-site competition curve-fitting.
(§1) In TABLE 1, binding affinity of certain Compounds of the Invention to the μ- and κ-opioid receptors was determined as described above for binding assays using HEK-293 cells.

κ opioid receptor [2] = biological target: T2, κ opioid receptor (Homo sapiens (Human), UniProt P41145); experiment: κ-opioid receptor radioligand dose-displacement binding assay ([3H]-U69,593); conditions: binding assays using HEK-293 cells
Experimental: Membranes from HEK-293 cells, CHO or U-2 OS cells expressing the recombinant human κ opioid receptor (κ) were prepared by lysing cells in ice cold hypotonic buffer (2.5 mM MgCl2, 50 mM HEPES, pH 7.4) (10 mL/10 cm dish) followed by homogenization with a tissue grinder/Teflon pestle. Membranes from a cell line naturally expressing kappa opioid receptor can also be used. Membranes were collected by centrifugation at 30,000×g for 15 min at 4° C. and pellets were resuspended in hypotonic buffer to a final concentration of 1-3 mg/mL. Protein concentrations were determined using the BioRad protein assay reagent with bovine serum albumen as standard. Aliquots of K receptor membranes were stored at −80° C.
Radioligand dose displacement assays used 0.4 nM [^3H]-U69,593 (GE Healthcare, Piscataway, N.J.; 40 Ci/mmole) with 15 μg membrane protein (recombinant κ opioid receptor expressed in HEK 293 cells; in-house prep) in a final volume of 200 μl binding buffer (5% DMSO, 50 mM Trizma base, pH 7.4). Non-specific binding was determined in the presence of 10 μM unlabeled naloxone or U69,593. All reactions were performed in 96-well polypropylene plates for 1 hour at a temperature of about 25° C. Binding reactions were terminated by rapid filtration onto 96-well Unifilter GF/C filter plates (Perkin Elmer, Shelton, Conn.) presoaked in 0.5% polyethylenimine (Sigma). Harvesting was performed using a 96-well tissue harvester (Perkin Elmer, Shelton, Conn.) followed by five filtration washes with 200 μl ice-cold binding buffer. Filter plates were subsequently dried at 50° C. for 1-2 hours. Fifty μl/well scintillation cocktail (Perkin Elmer, Shelton, Conn.) was added and plates were counted in a Packard Top-Count for 1 min/well.
as §1

κ opioid receptor [3] = biological target: T2, κ opioid receptor; experiment: κ-opioid receptor [35S]GTPγS functional assay; format: biochemical; conditions: for Emax: functional assays using U-2 OS cells, relative to the effect elicited by U69,593
Experimental: Functional [^35S]GTPγS binding assays were conducted as follows. κ opioid receptor membrane solution was prepared by sequentially adding final concentrations of 0.026 μg/μl κ membrane protein (in-house), 10 μg/mL saponin, 3 μM GDP and 0.20 nM [^35S]GTPγS to binding buffer (100 mM NaCl, 10 mM MgCl2, 20 mM HEPES, pH 7.4) on ice. The prepared membrane solution (190 μl/well) was transferred to 96-shallow well polypropylene plates containing 10 μl of 20× concentrated stock solutions of agonist prepared in DMSO. Plates were incubated for 30 min at a temperature of about 25° C. with shaking. Reactions were terminated by rapid filtration onto 96-well Unifilter GF/B filter plates (Perkin Elmer, Shelton, Conn.) using a 96-well tissue harvester (Packard) and followed by three filtration washes with 200 μl ice-cold binding buffer (10 mM NaH2PO4, 10 mM Na2HPO4, pH 7.4). Filter plates were subsequently dried at 50° C. for 2-3 hours. Fifty μl/well scintillation cocktail (Perkin Elmer, Shelton, Conn.) was added and plates were counted in a Packard Top-Count for 1 min/well.
κ GTP EC50 is the concentration of a compound providing 50% of the maximal response for the compound at a K receptor.
κ GTP Emax (%) is the maximal effect elicited by a compound relative to the effect elicited by U69,593.
(§2) In TABLE 2, activity response of certain Compounds of the Invention to the μ- and κ-opioid receptors was determined as described above for functional assays using U-2 OS cells.

μ-opioid receptor [4] = biological target: T1, μ-opioid receptor; experiment: μ-opioid receptor [35S]GTPγS functional assay; format: biochemical
Experimental: [^35S]GTPγS functional assays were conducted using freshly thawed μ-receptor membranes prepared in-house from a cell line expressing recombinant μ opioid receptor in a HEK-293, CHO or U-2 OS cell background, or purchased from a commercial source (Perkin Elmer, Shelton, Conn.; or DiscovRx, Fremont, Calif.). Assay reactions were prepared by sequentially adding the following reagents to binding buffer (100 mM NaCl, 10 mM MgCl2, 20 mM HEPES, pH 7.4) on ice (final concentrations indicated): membrane protein (0.026 mg/mL), saponin ([…]), GDP ([…]) and [^35S]GTPγS (0.20 nM; Perkin Elmer, Shelton, Conn.). The prepared membrane solution (190 l/well) was transferred to 96-shallow well polypropylene plates containing 10 μl of 20× concentrated stock solutions of the agonist [D-Ala^2, N-methyl-Phe^4 Gly-ol^5]-enkephalin (DAMGO) prepared in dimethyl sulfoxide (DMSO). Plates were incubated for 30 min at about 25° C. with shaking. Reactions were terminated by rapid filtration onto 96-well Unifilter GF/B filter plates (Perkin Elmer, Shelton, Conn.) using a 96-well tissue harvester (Perkin Elmer, Shelton, Conn.) followed by three filtration washes with 200 μl of ice-cold wash buffer (10 mM NaH2PO4, 10 mM Na2HPO4, pH 7.4). Filter plates were subsequently dried at 50° C. for 2-3 hours. BetaScint scintillation cocktail (Perkin Elmer, Shelton, Conn.) was added (50 μl/well) and plates were counted using a Packard Top-Count for 1 min/well. Data were analyzed using the sigmoidal dose-response curve fitting functions in GraphPad PRISM v. 3.0, or an in-house function for non-linear, sigmoidal dose-response curve-fitting.
μ GTP EC50 is the concentration of a compound providing 50% of the maximal response for the compound at a μ-opioid receptor.
μ GTP Emax (%) is the maximal effect elicited by a compound relative to the effect elicited by DAMGO, a standard μ agonist. Generally, the μ GTP Emax (%) value measures the efficacy of a compound to treat or prevent pain or other Conditions.
as §2

[5] = bound given in μM, read-out: Opioid Receptor Ki μ
[6] = read-out: Opioid Receptor Ki (nM) κ
[7] = bound given in μM, read-out: Opioid Receptor Ki κ
[8] = read-out: Opioid Receptor Ki (nM) μ

Row | Compound | Ki (μ-opioid receptor [1]; [5]) [µM] | Ki (κ opioid receptor [2]; [6]) [nM] | Ki (κ opioid receptor [2]; [7]) [nM] | other results
1 | COc1ccc2c(c1)[C@]13CCN(CC4CC4)[C@H]([C@@H]2O)[C@@H]1CC[C@@]1(C3)NC(=O)NC1=O [Compound 10, (4bS,4′S,8aR,9S,10R)-11-(cyclopropylmethyl)-10-hydroxy-3-methoxy-5,7,8,8a,9,10-hexahydrospiro[9,4b-(epiminoethano)phenanthrene-6,4′-imidazolidine]-2′,5′-dione] | > 20 | 3580 ± 647 |  | 
2 | COc1ccc2c3c1O[C@@H]1[C@]34CCN(CC3CC3)[C@H](C2=O)[C@]4(O)CC[C@]12NC(=O)NC2=O [Compound 8, (4S,4′S,4a′S,7a′R,12b′S)-3′-(cyclopropylmethyl)-4a′-hydroxy-9′-methoxy-2′,3′,4′,4a′,5′,6′-hexahydro-1′H,7a′H-spiro[imidazolidine-4,7′-[4,12]methanobenzofuro[3,2-e]isoquinoline]-2,5,13′-trione] | > 20 |  | > 20000 | 
3 | CN1CC[C@]23C[C@]4(CC[C@@]2(O)[C@H]1[C@H](O)c1ccc(O)cc13)NC(=O)NC4=O [Compound 17, (4bR,4′S,8aS,9R,10R)-3,8a,10-trihydroxy-11-methyl-5,7,8,8a,9,10-hexahydrospiro[9,4b-(epiminoethano)phenanthrene-6,4′-imidazolidine]-2′,5′-dione] |  |  |  | EC50 (κ opioid receptor [3]): 5.78 ± 1.1 µM; Emax (κ opioid receptor [3]): 107 ± 1.53%; EC50 (μ-opioid receptor [4]): 0.116 ± 0.023 µM; Emax (μ-opioid receptor [4]; functional assays using U-2 OS cells, relative to the effect elicited by DAMGO): 98.8 ± 0.97%
4 | COc1ccc2c(c1)[C@]13CCN(CC4CC4)[C@H](C2=O)[C@]1(O)CC[C@@]1(C3)NC(=O)NC1=O [Compound 6, (4bR,4′S,8aS,9S)-11-(cyclopropylmethyl)-8a-hydroxy-3-methoxy-7,8,8a,9-tetrahydrospiro[9,4b-(epiminoethano)phenanthrene-6,4′-imidazolidine]-2′,5′,10(5H)-trione] | > 20 | 1060 ± 84.6 |  | 
5 | COc1ccc2c(c1)[C@]13CCN(C)[C@H](C2=O)[C@]1(O)CC[C@@]1(C3)NC(=O)NC1=O [Compound 11, (4bR,4′S,8aS,9S)-8a-hydroxy-3-methoxy-11-methyl-7,8,8a,9-tetrahydrospiro [9,4b-(epiminoethano)phenanthrene-6,4′-imidazolidine]-2′,5′,10(5H)-trione] | > 20 |  | > 20000 | 
6 | COc1ccc2c(c1)[C@]13CCN(C)[C@H]([C@@H]2O)[C@]1(O)CC[C@@]1(C3)NC(=O)NC1=O [Compound 12, (4bR,4′S,8aS,9R,10R)-8a,10-dihydroxy-3-methoxy-11-methyl-5,7,8,8a,9,10-hexahydrospiro[9,4b-(epiminoethano)phenanthrene-6,4′-imidazolidine]-2′,5′-dione] |  |  | > 20000 | Ki (μ-opioid receptor [1]; [8]): 12.6 µM
7 | O=C1NC(=O)[C@@]2(CC[C@@]3(O)[C@H]4[C@H](O)c5ccc(O)cc5[C@@]3(CCN4CC3CC3)C2)N1 [Compound 14, (4bR,4′S,8aS,9R,10R)-11-(cyclopropylmethyl)-3,8a,10-trihydroxy-5,7,8,8a,9,10-hexahydrospiro[9,4b-(epiminoethano)phenanthrene-6,4′-imidazolidine]-2′,5′-dione] |  | 78.1 ± 21 |  | Ki (μ-opioid receptor [1]; [8]): 1.02 ± 0.0521 µM; EC50 (κ opioid receptor [3]): 0.183 ± 0.0173 µM; Emax (κ opioid receptor [3]): 111 ± 2.91%
8 | O=C1NC(=O)[C@@]2(CC[C@@]3(O)[C@H]4[C@H](O)c5ccc(O)c6c5[C@@]3(CCN4CC3CC3)[C@H]2O6)N1 [Compound 16, (4S,4′R,4a′S,7a′R,12b′S,13′R)-3′-(cyclopropylmethyl)-4a′,9′,13′-trihydroxy-2′,3′,4′,4a′,5′,6′-hexahydro-1′H,7a′H-spiro[imidazolidine-4,7′-[4,12]methanobenzofuro [3,2-e]isoquinoline]-2,5-dione] | > 20 |  | > 20000 | 
9 | COc1ccc2c3c1O[C@@H]1[C@]34CCN(CC3CC3)[C@H]([C@@H]2O)[C@]4(O)CC[C@]12NC(=O)NC2=O (stereo in doubt) [Compound 9, (4S,4′R,4a′S,7a′R,12b′S,13′R)-3′-(cyclopropylmethyl)-4a′,13′-dihydroxy-9′-methoxy-2′,3′,4′,4a′,5′,6′-hexahydro-1′H,7a′H-spiro[imidazazolidine-4,7′-[4,12]methanobenzofuro[3,2-e]isoquinoline]-2,5-dione] | > 20 |  | > 20000 | 
10 | COc1ccc2c(c1)[C@]13CCN(CC4CC4)[C@H]([C@@H]2O)[C@]1(O)CC[C@@]1(C3)NC(=O)NC1=O [Compound 7, (4bR,4′S,8aS,9R,10R)-11-(cyclopropylmethyl)-8a,10-dihydroxy-3-methoxy-5,7,8,8a,9,10-hexahydrospiro[9,4b-(epiminoethano)phenanthrene-6,4′-imidazolidine]-2′,5′-dione] | > 20 |  | > 20000 | 
11 | O=C1NC(=O)[C@@]2(CC[C@@]3(O)[C@H]4C(=O)c5ccc(O)c6c5[C@@]3(CCN4CC3CC3)[C@H]2O6)N1 [Compound 15, (4S,4′S,4a′S,7a′R,12b′S)-3′-(cyclopropylmethyl)-4a′,9′-dihydroxy-2′,3′,4′,4a′,5′,6′-hexahydro-1′H,7a′H-spiro [imidazolidine-4,7′-[4,12]methanobenzofuro [3,2-e]isoquinoline]-2,5,13′-trione] |  | 2520 ± 708 |  | Ki (μ-opioid receptor [1]; [8]): 15.4 ± 3.13 µM
